pIC50: −log10 of the molar value. Activity calls are given as the source filed them. The rule behind the calls is not given here.
How the values were obtained:
[1] = target: Phosphatidylinositol 4,5-bisphosphate 3-kinase catalytic subunit alpha isoform (Homo sapiens, UniProt P42336); test: Inhibition of PI3Kalpha (unknown origin) using PIP2 as substrate incubated for 1 hrs in presence of ATP by ADP-Glo kinase assay
[2] = target: Histone deacetylase 3 (Homo sapiens, UniProt O15379); test: Inhibition of HDAC3 (unknown origin) using Boc-Lys(acetyl)-AMC as substrate preincubated for 1 hrs followed by substrate addition and measured after 2 hrs by spectrophotometer based fluorometric assay
[3] = target: Histone deacetylase 1 (Homo sapiens, UniProt Q13547); test: Inhibition of HDAC1 (unknown origin) using Boc-Lys(acetyl)-AMC as substrate preincubated for 1 hrs followed by substrate addition and measured after 2 hrs by spectrophotometer based fluorometric assay
[4] = target: Histone deacetylase 2 (Homo sapiens, UniProt Q92769); test: Inhibition of HDAC2 (unknown origin) using Boc-Lys(acetyl)-AMC as substrate preincubated for 1 hrs followed by substrate addition and measured after 2 hrs by spectrophotometer based fluorometric assay
[5] = system: JeKo-1; test: Induction of apoptosis in human JeKo-1 cells assessed as viable cells at 0.5 uM incubated for 48 hrs by Annexin-V/FITC and PI staining based flow cytometric analysis (reference value: 94.1%); assay type: functional; settings: read-out: Activity
[6] = system: MDA-MB-231; test: Antiproliferative activity against human MDA-MB-231 cells incubated for 48 hrs by resazurin dye based fluorescence micro plate reader analysis; assay type: functional, cell-based; settings: MDA-MB-231, 48 h
[7] = system: JeKo-1; test: Induction of apoptosis in human JeKo-1 cells assessed as necrotic cells at 0.25 uM incubated for 48 hrs by Annexin-V/FITC and PI staining based flow cytometric analysis (reference value: 1.05%); assay type: functional
[8] = system: JeKo-1; test: Antiproliferative activity against human JeKo-1 cells incubated for 48 hrs by resazurin dye based fluorescence micro plate reader analysis; assay type: functional, cell-based; settings: JeKo-1, 48 h
[9] = system: JeKo-1; test: Induction of apoptosis in human JeKo-1 cells assessed as necrotic cells at 0.5 uM incubated for 48 hrs by Annexin-V/FITC and PI staining based flow cytometric analysis (reference value: 1.05%); assay type: functional
[10] = system: JeKo-1; test: Induction of apoptosis in human JeKo-1 cells assessed as necrotic cells at 1 uM incubated for 48 hrs by Annexin-V/FITC and PI staining based flow cytometric analysis (reference value: 1.05%); assay type: functional
[11] = system: JeKo-1; test: Potentiation of CI994-induced apoptosis in human JeKo-1 cells; assay type: functional, cell-based
[12] = system: JeKo-1; test: Induction of apoptosis in human JeKo-1 cells assessed as late apoptotic cells at 1 uM incubated for 48 hrs by Annexin-V/FITC and PI staining based flow cytometric analysis (reference value: 3.66%); assay type: functional
[13] = system: JeKo-1; test: Induction of apoptosis in human JeKo-1 cells assessed as viable cells at 0.25 uM incubated for 48 hrs by Annexin-V/FITC and PI staining based flow cytometric analysis (reference value: 94.1%); assay type: functional; settings: read-out: Activity
[14] = system: JeKo-1; test: Induction of apoptosis in human JeKo-1 cells assessed as late apoptotic cells at 0.25 uM incubated for 48 hrs by Annexin-V/FITC and PI staining based flow cytometric analysis (reference value: 3.66%); assay type: functional
[15] = system: MM1.S; test: Antiproliferative activity against human MM1.S cells incubated for 48 hrs by resazurin dye based fluorescence micro plate reader analysis; assay type: functional, cell-based
[16] = system: JeKo-1; test: Induction of apoptosis in human JeKo-1 cells assessed as late apoptotic cells at 0.5 uM incubated for 48 hrs by Annexin-V/FITC and PI staining based flow cytometric analysis (reference value: 3.66%); assay type: functional
[17] = Cytotoxicity against human HL7702 cells incubated for 48 hrs by resazurin dye based fluorescence micro plate reader analysis; assay type: toxicity, cell-based; settings: HL7702 (L02) cells
[18] = system: JeKo-1; test: Induction of apoptosis in human JeKo-1 cells assessed as viable cells at 1 uM incubated for 48 hrs by Annexin-V/FITC and PI staining based flow cytometric analysis (reference value: 94.1%); assay type: functional; settings: read-out: Activity
[19] = system: HL-60; test: Antiproliferative activity against human HL-60 cells incubated for 48 hrs by resazurin dye based fluorescence micro plate reader analysis; assay type: functional, cell-based; settings: HL-60, 48 h
[20] = Inhibition of PI3K/AKT/mTOR signaling in human JeKo-1 cells assessed as decrease in AKT phosphorylation at S473 residue at 0.25 uM incubated for 24 hrs by Western blot analysis; assay type: cell-based
[21] = system: JeKo-1; test: Effect on total AKT protein level in human JeKo-1 cells at 0.25 uM incubated for 24 hrs by Western blot analysis; assay type: functional, cell-based

Sequence of Histone deacetylase 1 (Q13547 whole entry): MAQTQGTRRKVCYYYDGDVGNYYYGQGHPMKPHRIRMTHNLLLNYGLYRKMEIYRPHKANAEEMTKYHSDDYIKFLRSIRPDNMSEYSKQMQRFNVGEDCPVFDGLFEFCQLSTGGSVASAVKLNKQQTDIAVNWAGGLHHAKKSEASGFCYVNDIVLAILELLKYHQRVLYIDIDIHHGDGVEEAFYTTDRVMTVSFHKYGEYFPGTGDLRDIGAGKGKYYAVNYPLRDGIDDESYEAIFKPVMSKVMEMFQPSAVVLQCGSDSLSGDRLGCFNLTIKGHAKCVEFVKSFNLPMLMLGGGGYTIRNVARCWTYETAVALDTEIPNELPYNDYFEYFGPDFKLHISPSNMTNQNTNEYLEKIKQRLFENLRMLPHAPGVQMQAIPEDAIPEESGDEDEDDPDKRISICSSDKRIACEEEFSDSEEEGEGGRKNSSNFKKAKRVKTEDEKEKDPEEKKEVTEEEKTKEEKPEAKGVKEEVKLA
Sequence of Histone deacetylase 2 (Q92769 whole entry): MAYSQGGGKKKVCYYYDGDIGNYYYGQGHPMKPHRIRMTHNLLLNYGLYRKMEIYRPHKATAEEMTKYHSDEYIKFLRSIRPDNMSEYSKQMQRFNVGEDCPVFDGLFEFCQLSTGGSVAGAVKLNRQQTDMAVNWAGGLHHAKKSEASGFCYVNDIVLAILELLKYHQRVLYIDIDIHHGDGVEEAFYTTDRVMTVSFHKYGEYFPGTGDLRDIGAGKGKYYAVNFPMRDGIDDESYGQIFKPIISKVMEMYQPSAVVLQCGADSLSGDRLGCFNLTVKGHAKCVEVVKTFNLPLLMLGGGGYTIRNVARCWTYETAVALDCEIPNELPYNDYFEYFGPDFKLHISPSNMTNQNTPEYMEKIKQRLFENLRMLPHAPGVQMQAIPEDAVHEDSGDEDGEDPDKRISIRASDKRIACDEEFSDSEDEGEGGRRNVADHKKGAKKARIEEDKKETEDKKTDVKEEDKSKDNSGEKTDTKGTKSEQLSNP
Sequence of Phosphatidylinositol 4,5-bisphosphate 3-kinase catalytic subunit alpha isoform (P42336 whole entry, canonical isoform): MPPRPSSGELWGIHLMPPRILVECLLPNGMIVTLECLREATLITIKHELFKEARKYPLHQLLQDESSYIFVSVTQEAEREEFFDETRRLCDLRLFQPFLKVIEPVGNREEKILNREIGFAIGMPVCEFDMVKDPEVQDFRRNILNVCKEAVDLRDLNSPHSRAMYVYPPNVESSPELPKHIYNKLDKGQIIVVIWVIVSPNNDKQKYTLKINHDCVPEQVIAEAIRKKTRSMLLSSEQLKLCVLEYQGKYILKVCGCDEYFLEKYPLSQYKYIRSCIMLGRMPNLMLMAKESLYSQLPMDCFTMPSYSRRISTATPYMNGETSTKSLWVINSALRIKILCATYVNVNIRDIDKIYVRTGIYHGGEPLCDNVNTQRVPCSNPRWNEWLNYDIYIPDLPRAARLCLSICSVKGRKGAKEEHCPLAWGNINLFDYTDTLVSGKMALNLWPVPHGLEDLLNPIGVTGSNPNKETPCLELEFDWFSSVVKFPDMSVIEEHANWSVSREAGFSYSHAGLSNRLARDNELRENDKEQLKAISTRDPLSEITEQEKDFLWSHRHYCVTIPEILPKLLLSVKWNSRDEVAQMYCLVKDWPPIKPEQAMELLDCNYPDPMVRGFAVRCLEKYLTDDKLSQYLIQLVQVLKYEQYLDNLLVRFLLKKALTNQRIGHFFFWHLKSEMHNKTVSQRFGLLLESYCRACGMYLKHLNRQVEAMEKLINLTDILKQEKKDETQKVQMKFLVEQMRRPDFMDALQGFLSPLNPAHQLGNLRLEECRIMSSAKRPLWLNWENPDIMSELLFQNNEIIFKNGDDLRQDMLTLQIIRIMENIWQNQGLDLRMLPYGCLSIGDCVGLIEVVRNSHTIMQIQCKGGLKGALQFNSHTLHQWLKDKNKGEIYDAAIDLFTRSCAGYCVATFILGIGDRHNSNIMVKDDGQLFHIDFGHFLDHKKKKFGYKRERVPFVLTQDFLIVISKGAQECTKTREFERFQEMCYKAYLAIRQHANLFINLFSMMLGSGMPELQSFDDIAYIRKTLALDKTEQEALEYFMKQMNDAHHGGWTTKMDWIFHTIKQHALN
Sequence of Histone deacetylase 3 (O15379 whole entry): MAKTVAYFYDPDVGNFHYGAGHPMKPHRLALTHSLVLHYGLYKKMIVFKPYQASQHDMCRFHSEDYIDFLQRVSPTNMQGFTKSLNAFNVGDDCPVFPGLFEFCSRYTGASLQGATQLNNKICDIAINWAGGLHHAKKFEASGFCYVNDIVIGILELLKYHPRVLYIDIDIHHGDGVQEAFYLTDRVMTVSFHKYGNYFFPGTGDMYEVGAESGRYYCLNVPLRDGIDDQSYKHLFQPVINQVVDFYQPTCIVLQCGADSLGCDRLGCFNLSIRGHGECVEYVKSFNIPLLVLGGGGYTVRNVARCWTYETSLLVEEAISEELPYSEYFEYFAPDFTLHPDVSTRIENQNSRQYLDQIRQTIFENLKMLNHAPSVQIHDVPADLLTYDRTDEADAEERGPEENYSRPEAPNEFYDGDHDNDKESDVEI

## Nc1c(NC(=O)c2ccc(NC(=O)Nc3ccc(-c4nc(N5CCOCC5)nc(N5CCOCC5)n4)cc3)cc2)ccc(F)c1F
[1]
  pIC50: 7.84
[2]
  pIC50: 5.85
[3]
  pIC50: < 5.00
[4]
  pIC50: < 5.00

## CNCCNC(=O)c1ccc(NC(=O)Nc2ccc(-c3nc(OC)nc(N4CCOCC4)n3)cc2)cc1
[5]
  viability at 0.5 µM: 94.8%
[6]
  pIC50: 5.38
[7]
  Activity: 0.73%
[1]
  pIC50: 8.62
[8]
  pIC50: 5.96
[9]
  Activity: 0.41%
[10]
  Activity: 0.4%
[11]
  Activity: Active
[12]
  Activity: 8.29%
[13]
  viability at 0.25 µM: 93.9%
[14]
  Activity: 4.5%
[15]
  pIC50: 5.48
[16]
  Activity: 3.51%
[17]
  IC50 at 48 h: > 100000 nM
[18]
  viability at 1 µM: 91.5%
[19]
  pIC50: 5.51
[20]
  inhibition: Active
[21]
  Activity: inactive

## Nc1ccccc1NC(=O)CCCCCCNC(=O)c1ccc(NC(=O)Nc2ccc(-c3nc(OC4COC4)nc(N4CCOCC4)n3)cc2)cc1
[1]
  pIC50: 8.05
[2]
  pIC50: 7.25
[3]
  pIC50: 6.75
[4]
  pIC50: 6.77

## Nc1ccccc1NC(=O)CCCCCCNC(=O)c1ccc(NC(=O)Nc2ccc(-c3nc(OC4CCOC4)nc(N4CCOCC4)n3)cc2)cc1 (stereo not drawn)
[1]
  pIC50: 7.78
[2]
  pIC50: 7.16
[3]
  pIC50: 6.66
[4]
  pIC50: 6.62

## Nc1ccccc1NC(=O)CCNC(=O)c1ccc(NC(=O)Nc2ccc(-c3nc(N4CCOCC4)nc(N4CCOCC4)n3)cc2)cc1
[1]
  pIC50: 7.29
[2]
  pIC50: < 5.00
[3]
  pIC50: < 5.00
[4]
  pIC50: < 5.00

## Nc1ccccc1NC(=O)CCCCCCCNC(=O)c1ccc(NC(=O)Nc2ccc(-c3nc(N4CCOCC4)nc(N4CCOCC4)n3)cc2)cc1
[1]
  pIC50: 7.12
[2]
  pIC50: 6.68
[3]
  pIC50: 6.46
[4]
  pIC50: 6.31

## Nc1ccccc1NC(=O)CCCCCNC(=O)c1ccc(NC(=O)Nc2ccc(-c3nc(N4CCOCC4)nc(N4CCOCC4)n3)cc2)cc1
[1]
  pIC50: 7.76
[2]
  pIC50: 7.00
[3]
  pIC50: 6.64
[4]
  pIC50: 6.22

## Nc1ccccc1NC(=O)CCCCCCNC(=O)c1ccc(NC(=O)Nc2ccc(-c3nc(N4CCOCC4)nc(N4CCOCC4)n3)cc2)cc1
[1]
  pIC50: 7.53
[2]
  pIC50: 7.12
[3]
  pIC50: 6.39
[4]
  pIC50: 6.53

## COc1nc(-c2ccc(NC(=O)Nc3ccc(C(=O)Nc4ccc(F)c(F)c4N)cc3)cc2)nc(N2CCOCC2)n1
[1]
  pIC50: 7.69
[3]
  pIC50: < 5.00
[4]
  pIC50: < 5.00

## Nc1ccccc1NC(=O)CCCCNC(=O)c1ccc(NC(=O)Nc2ccc(-c3nc(N4CCOCC4)nc(N4CCOCC4)n3)cc2)cc1
[1]
  pIC50: 7.88
[2]
  pIC50: < 5.00
[3]
  pIC50: < 5.00
[4]
  pIC50: < 5.00
